Source: ChEMBL document CHEMBL3600296, “Synthesis and evaluation of pyrrolotriazine based molecules as PI3 kinase inhibitors” (Bioorg Med Chem Lett, 2015)

How the values were obtained:
Details in all cases: 2 h
[1] = tested on: Liver microsome; experiment: Metabolic stability in dog liver microsomes at 10 uM up to 120 mins by HPLC analysis; format: ADME, Canis lupus familiaris
[2] = Metabolic stability in mouse liver microsomes at 10 uM up to 120 mins by HPLC analysis; format: ADME
[3] = tested on: Liver microsome; experiment: Metabolic stability in human liver microsomes at 10 uM up to 120 mins by HPLC analysis; format: ADME

Measured: Stability

Nc1ncc(-c2nc(N3CCOCC3)c3cccn3n2)cn1
Stable: all assays above

COCc1ccc2c(N3CCOCC3)nc(-c3cnc(N)nc3)nn12
Stable: all assays above

c1cc(-c2nc(N3CCOCC3)c3cccn3n2)c2cn[nH]c2c1
Stable: all assays above
